The record followed here is patent US20080293676A1, “Insecticidal Agents Based on Selected Insecticides and Safeners” (priority 2004, published 2008).

Format in all cases: in vivo
In assay [1] the test system is green peach aphid (Myzus persicae). The assay can be described thus: Myzus persicae test, spray treatment to runoff on infested bell pepper plants. Particulars: for Kill in % after 1^d: Table E2. The source says:
(§1) The expected activity for a given combination of two active ingredients can be calculated (cf. Colby, S. R.; “Calculating Synergistic and Antagonistic Responses of Herbicide Combinations”, Weeds 15, pages 20-22, 1967):
(§2) If • x=the kill rate, expressed in % of the untreated control, when employing active ingredient A at an application rate of m ppm, • Y=the kill rate, expressed in % of the untreated control, when employing active ingredient B at an application rate of n ppm, and • E=the kill rate, expressed in % of the untreated control, when employing active ingredients A and B at application rates of m and n ppm, then
(§3) If the actual insecticidal kill rate is higher than the calculated one, the kill of the combination is superadditive, i.e. a synergistic effect is present. In this case, the kill rate that is actually observed has to be higher than the value, calculated using the formula above, for the expected kill rate (E).
(§4) An appropriate solution is prepared by mixing 1 part by weight of formulation with the stated amount of water and adjuvant, and diluting the concentrate with water to the desired concentration.
Bell pepper plants (Capsicum sativum) heavily infested by the green peach aphid (Myzus persicae) are sprayed to runoff with the desired concentration of the application solution.
(§5) After the desired time the kill in % is determined in each case. In this context, 100% means that all of the larvae have been killed; 0% means that no larvae have been killed. The kill figures determined are calculated in accordance with the Colby formula described above.

Assay [2] concerns cotton aphid (Aphis gossypii). The assay can be described thus: Aphis gossypii test, spray treatment to runoff on infested cotton plants.
Description: as §1, §2, §3, §4
Cotton plants (Gossypium herbaceum) heavily infested by the cotton aphid (Aphis gossypii) are sprayed to runoff with the desired concentration of the application solution.
as §5

For assay [3], the system named is caterpillars of the army worm (Spodoptera frugiperda). The experiment in a line: Spodoptera frugiperda test, spray treatment to runoff on corn plants.
Description: as §1, §2, §3, §4
b) Spodoptera frugiperda Test
Corn plants (Zea mais) are sprayed to runoff with the desired use concentration and are populated with caterpillars of the army worm (Spodoptera frugiperda) while the leaves are still wet.
as §5

Assay [4] relates to larvae of the cabbage moth (Plutella xylostella). The assay can be described thus: Plutella xylostella test, spray treatment to runoff on cabbage plants. Particulars: Table B.
Description: as §1, §2, §3, §4
c) Plutella xylostella Test
Cabbage plants (Brassica pekinesis) are sprayed to runoff with the desired use concentration and are populated with larvae of the cabbage moth (Plutella xylostella) while the leaves are still wet.
as §5

Assay [5] has as its system caterpillars of the cotton boll worm (Heliothis armigera). The experiment in a line: Heliothis armigera test, spray treatment to runoff on cotton plants. The conditions noted are these: Table A, 4 ppm.
Description: as §1, §2, §3, §4
a) Heliothis armigera Test […]
After the desired time the kill in % is determined in each case. […] The kill figures determined are calculated in accordance with the Colby formula described above.

Take `CC1(C)[C@H](C(=O)O[C@H](C#N)c2cccc(Oc3ccccc3)c2)[C@@H]1C=C(Br)Br` [Deltamethrin]: the “Kill in % after 1^d” value in assay [1] (0.8 ppm) is on record as 20%. Also, the “Kill in % after 3^d” value in assay [2] (Table D2, 0.8 ppm) came out at 15%.
For the molecule `C=CCN(CC=C)C(=O)C(Cl)Cl` [Dichlormid a.i., 2,2-dichloro-N,N-di-2-propenylacetamide], the “Kill in % after 3^d” value in assay [2] (Table D1, 100 ppm) is 0%; in assay [3] (Table C2, 50 ppm), 0%.
Regarding `Clc1cc(Cl)nc(-c2ccccc2)n1` [Fenclorim, 4,6-dichloro-2-phenylpyrimidine], in assay [4] (100 ppm), the “Kill in % after 7^d” value stood at 0%. Further, the “Kill in % after 3^d” value in assay [2] (Table D1, 100 ppm) is given as 0%; in assay [2] (Table D2, 100 ppm), 0%; in assay [3] (Table C2, 100 ppm), 0%.
For `CC1(C)OC(c2ccco2)CN1C(=O)C(Cl)Cl` (stereo not shown) [Furilazole a.i., 3-dichloroacetyl-5-(2-furanyl)-2,2-dimethyloxazolidine], in assay [1] (100 ppm), the “Kill in % after 1^d” value is 0%. In addition, the “Kill in % after 3^d” value turned out to be 0% in assay [2] (Table D1, 100 ppm); 0% in assay [2] (Table D2, 100 ppm); 0% in assay [3] (Table C2, 100 ppm).
With `CNC(=O)Oc1cc(C)c(SC)c(C)c1` [Methiocarb], the “Kill in % after 7^d” value in assay [4] (20 ppm) is on record as 0%. Moreover, the “Kill in % after 3^d” value in assay [3] (Table C2, 20 ppm) worked out at 17%.
In the case of `CC1(C)C(C=C(Cl)Cl)C1C(=O)OC(C#N)c1ccc(F)c(Oc2ccccc2)c1` (stereo not drawn) [β-Cyfluthrin, Beta-Cyfluthrin], the “Kill in % after 3^d” value is given as 10% in assay [1] (Table E1, 0.8 ppm, after 3 d) and 35% in assay [2] (Table D1, 0.8 ppm).
Chlorpyrifos: in assay [4] (4 ppm), the “Kill in % after 7^d” value turned out to be 0%. For the same molecule, the “Kill in % after 3^d” value in assay [5] was 0%; in assay [3] (Table C1, 4 ppm), 50%.
